Measurements from patent US11793849B2, “Method of Chinese herbal medicine extract used for treating multiple diseases caused by drug resistant bacteria infection” (priority 2016, dated 2023).

Legend:
MDRAB = test: MIC determination, microdilution broth method; type: cell-based, Acinetobacter baumannii
Procedure: Determination methods of a Minimal Inhibitory Concentration (MIC) and a Minimum Bactericidal Concentration (MBC) of a test product: the MIC and the MBC of the Pithecellobium clypearia Benth water or ethanol extract to the MDRAB are determined by a microdilution broth method. And it is operated by referring to the microdilution broth method recommended by National Committee for Clinical Laboratory Standards (NCCLS).

ATCC27853 = test: MIC determination, control strain; type: cell-based
Procedure: Determination methods of a Minimal Inhibitory Concentration (MIC) and a Minimum Bactericidal Concentration (MBC) of a test product: the MIC and the MBC of the Pithecellobium clypearia Benth water or ethanol extract to the MDRAB are determined by a microdilution broth method.

[1] = single use, 20 MDRABs, EA=10% ethanol extract
[2] = single use, 20 MDRABs, EA=water extract
[3] = single use, 20 MDRABs, section of the 60% ethanol extract
[4] = single use, 20 MDRABs, section of the 95% ethanol extract

Polymycin B [POLB]
2 µg/mL: MIC (MDRAB; strain A2, EA=60% ethanol extract) | MIC (MDRAB; strain A2, EA=95% ethanol extract) | MIC (MDRAB; strain A2, single use, EA=10% ethanol extract) | MIC (MDRAB; strain A2, single use, EA=water extract) | MIC (MDRAB; strain A3, EA=60% ethanol extract) | MIC (MDRAB; strain A3, EA=95% ethanol extract) | MIC (MDRAB; strain A3, single use, EA=10% ethanol extract) | MIC (MDRAB; strain A3, single use, EA=water extract) | MIC (MDRAB; strain A4, EA=60% ethanol extract) | MIC (MDRAB; strain A4, EA=95% ethanol extract) | MIC (MDRAB; strain A4, single use, EA=10% ethanol extract) | MIC (MDRAB; strain A4, single use, EA=water extract) | MIC (MDRAB; strain A12, EA=60% ethanol extract) | MIC (MDRAB; strain A12, EA=95% ethanol extract) | MIC (MDRAB; strain A12, single use, EA=10% ethanol extract) | MIC (MDRAB; strain A12, single use, EA=water extract) | MIC (MDRAB; strain A13, EA=60% ethanol extract) | MIC (MDRAB; strain A13, EA=95% ethanol extract) | MIC (MDRAB; strain A13, single use, EA=10% ethanol extract) | MIC (MDRAB; strain A13, single use, EA=water extract) | MIC (MDRAB; strain A15, EA=60% ethanol extract) | MIC (MDRAB; strain A15, EA=95% ethanol extract) | MIC (MDRAB; strain A15, single use, EA=10% ethanol extract) | MIC (MDRAB; strain A15, single use, EA=water extract) | MIC (MDRAB; strain A20, EA=60% ethanol extract) | MIC (MDRAB; strain A20, EA=95% ethanol extract) | MIC (MDRAB; strain A20, single use, EA=10% ethanol extract) | MIC (MDRAB; strain A20, single use, EA=water extract)
8 µg/mL: MIC (MDRAB; strain A1, EA=60% ethanol extract) | MIC (MDRAB; strain A1, EA=95% ethanol extract) | MIC (MDRAB; strain A1, single use, EA=10% ethanol extract) | MIC (MDRAB; strain A1, single use, EA=water extract) | MIC (MDRAB; strain A6, EA=60% ethanol extract) | MIC (MDRAB; strain A6, EA=95% ethanol extract) | MIC (MDRAB; strain A6, single use, EA=10% ethanol extract) | MIC (MDRAB; strain A6, single use, EA=water extract) | MIC (MDRAB; strain A8, EA=60% ethanol extract) | MIC (MDRAB; strain A8, EA=95% ethanol extract) | MIC (MDRAB; strain A8, single use, EA=10% ethanol extract) | MIC (MDRAB; strain A8, single use, EA=water extract)
0.5 µg/mL: MIC (MDRAB; strain A14, EA=60% ethanol extract) | MIC (MDRAB; strain A14, EA=95% ethanol extract) | MIC (MDRAB; strain A14, single use, EA=10% ethanol extract) | MIC (MDRAB; strain A14, single use, EA=water extract)
16 µg/mL: MIC90 (MDRAB; MDRABs, EA=60% ethanol extract) | MIC90 (MDRAB; MDRABs, EA=95% ethanol extract) | MIC90 (MDRAB; [1]) | MIC90 (MDRAB; [2]) | MIC90 (MDRAB; [3]) | MIC90 (MDRAB; [4]) | MIC (MDRAB; strain A11, EA=60% ethanol extract) | MIC (MDRAB; strain A11, EA=95% ethanol extract) | MIC (MDRAB; strain A11, single use, EA=10% ethanol extract) | MIC (MDRAB; strain A11, single use, EA=water extract)
4 µg/mL: MIC50 (MDRAB; MDRABs, EA=60% ethanol extract) | MIC50 (MDRAB; MDRABs, EA=95% ethanol extract) | MIC50 (MDRAB; [1]) | MIC50 (MDRAB; [2]) | MIC50 (MDRAB; [3]) | MIC50 (MDRAB; [4]) | MIC (MDRAB; strain A5, EA=60% ethanol extract) | MIC (MDRAB; strain A5, EA=95% ethanol extract) | MIC (MDRAB; strain A5, single use, EA=10% ethanol extract) | MIC (MDRAB; strain A5, single use, EA=water extract) | MIC (MDRAB; strain A7, EA=60% ethanol extract) | MIC (MDRAB; strain A7, EA=95% ethanol extract) | MIC (MDRAB; strain A7, single use, EA=10% ethanol extract) | MIC (MDRAB; strain A7, single use, EA=water extract) | MIC (MDRAB; strain A16, EA=60% ethanol extract) | MIC (MDRAB; strain A16, EA=95% ethanol extract) | MIC (MDRAB; strain A16, single use, EA=10% ethanol extract) | MIC (MDRAB; strain A16, single use, EA=water extract) | MIC (MDRAB; strain A18, EA=60% ethanol extract) | MIC (MDRAB; strain A18, EA=95% ethanol extract) | MIC (MDRAB; strain A18, single use, EA=10% ethanol extract) | MIC (MDRAB; strain A18, single use, EA=water extract) | MIC (MDRAB; strain A19, EA=60% ethanol extract) | MIC (MDRAB; strain A19, EA=95% ethanol extract) | MIC (MDRAB; strain A19, single use, EA=10% ethanol extract) | MIC (MDRAB; strain A19, single use, EA=water extract)
32 µg/mL: MIC (MDRAB; strain A10, EA=60% ethanol extract) | MIC (MDRAB; strain A10, EA=95% ethanol extract) | MIC (MDRAB; strain A10, single use, EA=10% ethanol extract) | MIC (MDRAB; strain A10, single use, EA=water extract)
1 µg/mL: MIC (MDRAB; strain A9, EA=60% ethanol extract) | MIC (MDRAB; strain A9, EA=95% ethanol extract) | MIC (MDRAB; strain A9, single use, EA=10% ethanol extract) | MIC (MDRAB; strain A9, single use, EA=water extract) | MIC (ATCC27853; EA=10% ethanol extract) | MIC (ATCC27853; EA=60% ethanol extract) | MIC (ATCC27853; EA=95% ethanol extract) | MIC (ATCC27853; EA=water extract)
64 µg/mL: MIC (MDRAB; strain A17, EA=60% ethanol extract) | MIC (MDRAB; strain A17, EA=95% ethanol extract) | MIC (MDRAB; strain A17, single use, EA=10% ethanol extract) | MIC (MDRAB; strain A17, single use, EA=water extract)
0.5 to 64 µg/mL: MIC Range (MDRAB; MDRABs, EA=60% ethanol extract) | MIC Range (MDRAB; MDRABs, EA=95% ethanol extract) | MIC Range (MDRAB; [1]) | MIC Range (MDRAB; [2])
